Results from patent US11702403B2, “EAAT2 activators and methods of using thereof” (OHIO STATE INNOVATION FOUNDATION, priority 2018, dated 2023).

Legend:
human EAAT2 = test: EAAT2 protein levels in PA-EAAT2 cells by Western blot; type: cell-based
Protocol: Compounds were evaluated in PA-EAAT2 cells, a primary astrocyte stably expressing human EAAT2 mRNAs (Kong et al., J Clin Invest. 2014:1255-67). Cells were treated with compound at 0.0375, 0.075, 0.15, 0.3, 0.6, 1.25, 2.5, 5, 10 μM for 24 hr and then harvested for measuring EAAT2 protein levels by Western blot analysis.

EAAT2 [1] = test: EAAT2 protein levels in brains of wild-type C57BL/6 mice by Western blot; type: in vivo; details: 10 mpk p.o.
Protocol: Mice then were euthanized and brains were harvested for examining EAAT2 protein levels by Western blot analysis.
Wild-type C57BL/6 mice (2-3 months old) were treated orally with compound 101 at 0.01, 0.033, 0.1, 0.33, 1, 3.33, 10, 20, 40, 60, and 100 mg/kg/day (voluntary ingestion of compound in honey) for seven or 28 days. Mice then were euthanized and brains were harvested for examining EAAT2 protein levels by Western blot analysis. […] To determine the functional consequences of the increased EAAT2 to the synaptic plasticity, wild-type mice were treated with vehicle or compound 101 at 0.033, 0.33, and 3.3 mg/kg for seven days. Mice were then euthanized and acute hippocampal slices were collected and assessed for changes in long-term potentiation (LTP).

EAAT2 [2] = test: EAAT2 protein levels in forebrain gliosomes of wild-type FVB/NJ mice by Western blot; type: in vivo; details: oral 1, 2.5, 5, 10, 20, 40 mg/kg, 24 hours post-treatment
Protocol: (§1) Mice were treated with compound at 40 mg/kg (or as depicted) and forebrains were harvested for the gliosome preparation 24 hr (or as described) post-treatment. FIG. 2A: Western blots show dose-dependent increase of EAAT2 protein levels. FIG. 2B: Time-dependent fold increase in EAAT2 protein expression in response to compound treatment at 4 hours (1.54±0.13) and 24 hours (1.98±0.19) post-treatment. Quantification of EAAT2 expression time course (normalized to flotilin; n=4/group). Data represented as mean SEM and analyzed using one-way ANOVA with Tukey post-hoc test. *p<0.05, **p<0.01. FIG. 2C: Compound treatment enhances CA3-CA1 LTP in the hippocampus. Mice were treated with vehicle or compound for seven days and acute hippocampal sections were collected for LTP recordings. […] Data represented as mean SEM analyzed using one-way ANOVA with Bonferroni post-hoc tests. Statistical significance denoted as ***p<0.001.
At 24 hours post-treatment, mice were euthanized and forbrains were harvested. Gliosomes (astrocytic processes) were then isolated for measuring EAAT2 protein levels by Western blot analysis. […] This induction could be seen as early as 4 hours post-treatment (FIG. 2B). […] Acute hippocampal slices were then collected and assessed for changes in long-term potentiation (LTP).

[3] = test system: CA3-CA1 LTP in the hippocampus; test: Long-term potentiation (LTP) in acute hippocampal slices of treated wild-type mice; type: in vivo; details: 10 mg/kg for 7 days, vs vehicle, up to 30 min after LTP induction
Protocol: as §1, with “Statistical significance denoted as ***p<0.001.” left out
At 24 hours post-treatment, mice were euthanized and forbrains were harvested. […] Acute hippocampal slices were then collected and assessed for changes in long-term potentiation (LTP).
Wild-type C57BL/6 mice (2-3 months old) were treated orally with compound 101 at 0.01, 0.033, 0.1, 0.33, 1, 3.33, 10, 20, 40, 60, and 100 mg/kg/day (voluntary ingestion of compound in honey) for seven or 28 days. […] Mice were then euthanized and acute hippocampal slices were collected and assessed for changes in long-term potentiation (LTP).

EAAT2 [4] = test: EAAT2 protein levels in brains of Beagle dogs by Western blot; type: in vivo; details: oral 20 mg/kg; 0.5, 4, 24 hours post-treatment and seven daily treatment
tau = test: Tau expression and phosphorylation in total cell lysates and Sarkosyl insoluble fractions of rTg4510 forebrains; type: in vivo, mice
Excerpt: (§2) FIGS. 7A and 7B illustrate the effect of compound treatment on phosphorylated tau in total lysates (TCL) and in the Sarkosyl insoluble (P3) fraction (n=4/group). Dashed-line represents expression in rTg4510 vehicle group.
We, therefore, investigated if the compound could reduce toxic forms of tau. […] Four antibodies, which recognized different phosphorylation sites or pathological forms of tau, were used: PHF1 recognized Ser 396 & Ser404; AT8 recognized Ser202 & Thr205; MC-1 recognized neurofibrillary tangles and Tau5 recognized all of tau (phosphorylated and non-phosphorylated isoforms). […] There was an especially significant reduction in the 64 kDa (hyperphosphorylated) variant for each antibody tested; it has been reported that the 64 kDa variant was strongly correlated with neurodegeneration.
[…] The phosphorylation (activation) state of kinases that have been reported to target tau as a substrate were assessed. […] This form of phosphorylation inhibits GSK3β activity. Therefore, inactivation of the GSK3β kinase may mediate reduced tau phosphorylation in rTg4510 mice after compound treatment.

GSK3β = test: Phosphorylation state of kinases in forebrain TCL of rTg4510 mice; type: in vivo; details: within one hour of treatment, single dose
Protocol: as §2
To identify which kinase/phosphatase is involved, forebrain TCL samples were collected from rTg4510 mice one-hour after a single dose. The phosphorylation (activation) state of kinases that have been reported to target tau as a substrate were assessed. […] This form of phosphorylation inhibits GSK3β activity. Therefore, inactivation of the GSK3β kinase may mediate reduced tau phosphorylation in rTg4510 mice after compound treatment.

[5] = test system: mouse model of Gulf War Illness (GWI); test: Mouse model of Gulf War Illness, mood and cognitive behavior tests; type: in vivo, C57BL/6J mice
Protocol: Three months old C57BL/6J mice were randomly divided into three groups: control (no GWI, with vehicle), GWI with vehicle, and GWI with compound. For GWI groups, mice were exposed to GWI chemicals and chronic unpredictable stress daily for 6 weeks. GWI chemicals include pyridostigmine (1.3 mg/kg), permethrin (0.13 mg/kg), and DEET (40 mg/kg). The stress regimen included exposure to two different stressors each day. The stressors used in this study include restraint, cage rotation, hot stress, cold stress, predator sound, periods of darkness during the light cycle, wet bedding, replace bedding with water, cage tilt at 45 degree angle, and stroboscopic lighting. […] At 3-months post-exposure, mice were subjected to several behavior tests to assess mood and cognitive functions. These tests included dark and light exploration, elevated plus maze, novelty suppressed feeding, tail suspension open field, novel object recognition, and Barnes maze tests.
After one month of treatment, mice were evaluated for mood and cognitive functions.

[6] = prevention: 20 mg/kg daily from beginning of 6-weeks exposure, tested 3-months post-exposure
[7] = treatment: 20 mg/kg at five months post-exposure, one month of treatment

## CN(C)CCn1nc(-c2ccccn2)ccc1=O [Compound 100, 2-(2-(dimethylamino)ethyl)-6-(pyridin-2-yl)pyridazin-3(2H)-one]
Human EAAT2; PA-EAAT2 cells, 24 hr, tested 0.0375-10 μM
  concentration that reaches maximum activity: 0.6 µM
Human EAAT2; primary astrocytes, read-out: EAAT2 induction in vitro - primary astrocytes (EC50)
  EC50: 250 nM
EAAT2 [1]; 7-day dosing
  EAAT2 induction in vivo in wild-type mice - 7-day dosing by p.o.: 1.63-fold @ 10 mpk
EAAT2 [1]; 28-day dosing
  EAAT2 induction in vivo in wild-type mice - 28-day dosing by p.o.: 2.37-fold @ 10 mpk
EAAT2 [1]; single dose
  EAAT2 induction in vivo in wild-type mice - single dose by p.o.: 1.56-fold @ 10 mpk
EAAT2 [2]
  EAAT2 protein levels in gliosomes: induced EAAT2 expression in a dose-dependent manner
[3]
  CA1 field potential responses to stimulation of CA3 afferents (LTP): significantly increased responses
EAAT2 [4]
  EAAT2 protein levels in dog brains: increased in a time-dependent manner
tau; four months old, after two months of treatment
  total-tau (transgene expression): no reduction in total-tau
tau; long-term treatment, Sarkosyl insoluble (P3) fraction
  total tau in the P3 fraction: very significant reduction
tau; long-term treatment, TCL and P3 fraction
  phosphorylated (AT8 and PHF1) and conformation specific (MC1) forms of tau: reduced
tau; single dose, 24 hours later
  all forms of tau in the P3 fraction: very clear reduction
  pTau (AT8 and PHF1) in TCL: significant decrease
  total tau (Tau-5) or tau tangles (MC1) in TCL: no change
GSK3β
  phosphorylation of GSK3β at Ser9: approximately 2 fold
[5]; [6]
  anxiety- and depression-like behaviors: significantly reduced
  cognitive functions: improved cognitive functions
[5]; [7]
  anxiety- and depression-like behaviors: reduced anxiety- and depression-like behaviors
  cognitive functions: significantly improved
